Patent US20250186627A1, “RADIOLABELED COMPOUNDS TARGETING THE PROSTATE-SPECIFIC MEMBRANE ANTIGEN” (PROVINCIAL HEALTH SERVICES AUTHORITY, priority 2022, published 2025)

System: NRG-mice bearing LNCaP tumors
Assay: Biodistribution (and PET/SPECT imaging) in NRG-mice bearing LNCaP tumors
Format: in vivo
Details: Avg
In short: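 LNCaP xenografts (~10 million cells, left dorsal flank) grown 4-6 weeks to 200-600 mm^3 in NRG mice. Tail-vein injection of 4-6 MBq ^68Ga or 18.5 MBq ^177Lu tracer under isoflurane; CT then 10-min static PET or 1-h SPECT. Biodistribution by gamma counting of weighed organs, expressed as %ID/g.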

## COc1ccc(CCCC(=O)NCC(=O)NC(CCCCNC(=O)CN2CCN(CC(=O)[O-])CCN(CC(=O)[O-])CCN(CC(=O)[O-])CC2)CC(=O)NCC2CCC(C(=O)NC(Cc3c4ccccc4cc4ccccc34)C(=O)NCCCCC(NC(=O)NC(CC(F)C(=O)O)C(=O)O)C(=O)O)CC2)cc1.[177Lu+3] (centres unmarked) [^177Lu-CCZ02019]
3 h p.i.
  Biodistribution: Adrenal gland: 2.79 % ID/g
  Biodistribution: Blood: 11.22 % ID/g
  Biodistribution: Bone: 1.03 % ID/g
  Biodistribution: Brain: 0.18 % ID/g
  Biodistribution: Fat: 1.91 % ID/g
  Biodistribution: Heart: 2.52 % ID/g
  Biodistribution: Intestine: 0.98 % ID/g
  Biodistribution: LNCaP tumor: 50.23 % ID/g
  Biodistribution: Lacrimal gland: 0.39 % ID/g
  Biodistribution: Liver: 2.18 % ID/g
  Biodistribution: Lungs: 5.22 % ID/g
  Biodistribution: Muscle: 0.87 % ID/g
  Biodistribution: Pancreas: 1.07 % ID/g
  Biodistribution: Salivary gland: 1.92 % ID/g
  Biodistribution: Seminal gland: 0.59 % ID/g
  Biodistribution: Spleen: 1.53 % ID/g
  Biodistribution: Stomach: 0.58 % ID/g
  Biodistribution: Testes: 2.55 % ID/g
  Biodistribution: Thyroid: 2.44 % ID/g
  Biodistribution: Urine: 180.95 % ID/g
  Biodistribution: kidney: 10.42 % ID/g
24 h p.i.
  Biodistribution: Adrenal gland: 0.54 % ID/g
  Biodistribution: Blood: 0.70 % ID/g
  Biodistribution: Bone: 0.18 % ID/g
  Biodistribution: Brain: 0.03 % ID/g
  Biodistribution: Fat: 0.33 % ID/g
  Biodistribution: Heart: 0.37 % ID/g
  Biodistribution: Intestine: 0.23 % ID/g
  Biodistribution: LNCaP tumor: 55.39 % ID/g
  Biodistribution: Lacrimal gland: 0.00 % ID/g
  Biodistribution: Liver: 0.48 % ID/g
  Biodistribution: Lungs: 0.65 % ID/g
  Biodistribution: Muscle: 0.11 % ID/g
  Biodistribution: Pancreas: 0.17 % ID/g
  Biodistribution: Salivary gland: 0.56 % ID/g
  Biodistribution: Seminal gland: 0.23 % ID/g
  Biodistribution: Spleen: 0.37 % ID/g
  Biodistribution: Stomach: 0.73 % ID/g
  Biodistribution: Testes: 0.37 % ID/g
  Biodistribution: Thyroid: 0.52 % ID/g
  Biodistribution: Urine: 8.42 % ID/g
  Biodistribution: kidney: 4.02 % ID/g
72 h p.i.
  Biodistribution: Adrenal gland: 0.53 % ID/g
  Biodistribution: Blood: 0.13 % ID/g
  Biodistribution: Bone: 0.05 % ID/g
  Biodistribution: Brain: 0.01 % ID/g
  Biodistribution: Fat: 0.16 % ID/g
  Biodistribution: Heart: 0.18 % ID/g
  Biodistribution: Intestine: 0.08 % ID/g
  Biodistribution: LNCaP tumor: 45.10 % ID/g
  Biodistribution: Lacrimal gland: 0.00 % ID/g
  Biodistribution: Liver: 0.29 % ID/g
  Biodistribution: Lungs: 0.41 % ID/g
  Biodistribution: Muscle: 0.04 % ID/g
  Biodistribution: Pancreas: 0.09 % ID/g
  Biodistribution: Salivary gland: 0.27 % ID/g
  Biodistribution: Seminal gland: 0.06 % ID/g
  Biodistribution: Spleen: 0.45 % ID/g
  Biodistribution: Stomach: 0.15 % ID/g
  Biodistribution: Testes: 0.39 % ID/g
  Biodistribution: Thyroid: 0.37 % ID/g
  Biodistribution: Urine: 1.12 % ID/g
  Biodistribution: kidney: 1.84 % ID/g
144 h p.i.
  Biodistribution: Adrenal gland: 0.31 % ID/g
  Biodistribution: Blood: 0.04 % ID/g
  Biodistribution: Bone: 0.04 % ID/g
  Biodistribution: Brain: 0.01 % ID/g
  Biodistribution: Fat: 0.11 % ID/g
  Biodistribution: Heart: 0.13 % ID/g
  Biodistribution: Intestine: 0.03 % ID/g
  Biodistribution: LNCaP tumor: 40.77 % ID/g
  Biodistribution: Lacrimal gland: 0.00 % ID/g
  Biodistribution: Liver: 0.19 % ID/g
  Biodistribution: Lungs: 0.93 % ID/g
  Biodistribution: Muscle: 0.03 % ID/g
  Biodistribution: Pancreas: 0.06 % ID/g
  Biodistribution: Salivary gland: 0.34 % ID/g
  Biodistribution: Seminal gland: 0.03 % ID/g
  Biodistribution: Spleen: 0.51 % ID/g
  Biodistribution: Stomach: 0.03 % ID/g
  Biodistribution: Testes: 0.33 % ID/g
  Biodistribution: Thyroid: 0.28 % ID/g
  Biodistribution: Urine: 0.84 % ID/g
  Biodistribution: kidney: 1.10 % ID/g
240 h p.i.
  Biodistribution: Adrenal gland: 0.11 % ID/g
  Biodistribution: Blood: 0.01 % ID/g
  Biodistribution: Bone: 0.00 % ID/g
  Biodistribution: Brain: 0.00 % ID/g
  Biodistribution: Fat: 0.06 % ID/g
  Biodistribution: Heart: 0.05 % ID/g
  Biodistribution: Intestine: 0.02 % ID/g
  Biodistribution: LNCaP tumor: 25.30 % ID/g
  Biodistribution: Lacrimal gland: 0.00 % ID/g
  Biodistribution: Liver: 0.15 % ID/g
  Biodistribution: Lungs: 0.09 % ID/g
  Biodistribution: Muscle: 0.01 % ID/g
  Biodistribution: Pancreas: 0.03 % ID/g
  Biodistribution: Salivary gland: 0.10 % ID/g
  Biodistribution: Seminal gland: 0.01 % ID/g
  Biodistribution: Spleen: 0.46 % ID/g
  Biodistribution: Stomach: 0.02 % ID/g
  Biodistribution: Testes: 0.16 % ID/g
  Biodistribution: Thyroid: 0.12 % ID/g
  Biodistribution: Urine: 0.37 % ID/g
  Biodistribution: kidney: 0.52 % ID/g

## COc1ccc(CCCC(=O)NCC(=O)NC(CCCCNC(=O)CN2CCN(CC(=O)[O-])CCN(CC(=O)[O-])CCN(CC(=O)[O-])CC2)C(=O)NCC2CCC(C(=O)NC(Cc3c4ccccc4cc4ccccc34)C(=O)NCCCCC(NC(=O)NC(CCCC(=O)O)C(=O)O)C(=O)O)CC2)cc1.[177Lu+3] (centres unmarked) [^177Lu-HTK03170, reference compound]
24 h p.i.
  Biodistribution: Blood: 0.73 % ID/g
  Biodistribution: Bone: 0.18 % ID/g
  Biodistribution: Intestine: 0.18 % ID/g
  Biodistribution: LNCaP tumor: 42.96 % ID/g
  Biodistribution: Liver: 0.49 % ID/g
  Biodistribution: Muscle: 0.10 % ID/g
  Biodistribution: Salivary gland: 0.35 % ID/g
  Biodistribution: Spleen: 0.33 % ID/g
  Biodistribution: Urine: 19.02 % ID/g
  Biodistribution: kidney: 6.06 % ID/g
72 h p.i.
  Biodistribution: Blood: 0.07 % ID/g
  Biodistribution: Bone: 0.19 % ID/g
  Biodistribution: Intestine: 0.08 % ID/g
  Biodistribution: LNCaP tumor: 56.98 % ID/g
  Biodistribution: Liver: 0.27 % ID/g
  Biodistribution: Muscle: 0.15 % ID/g
  Biodistribution: Salivary gland: 0.31 % ID/g
  Biodistribution: Spleen: 0.36 % ID/g
  Biodistribution: Urine: 4.96 % ID/g
  Biodistribution: kidney: 4.30 % ID/g
